Measurements as given in ChEMBL document CHEMBL1201862, “PubChem BioAssay data set” (2004).
Active and inactive are the calls of the source.

Tests used:
[1] = biological target: T1, Methionyl-tRNA synthetase, putative (Trypanosoma brucei brucei, UniProt Q38C91); type: functional, Trypanosoma brucei brucei strain 927/4 GUTat10.1
T1 sequence (Q38C91 whole entry): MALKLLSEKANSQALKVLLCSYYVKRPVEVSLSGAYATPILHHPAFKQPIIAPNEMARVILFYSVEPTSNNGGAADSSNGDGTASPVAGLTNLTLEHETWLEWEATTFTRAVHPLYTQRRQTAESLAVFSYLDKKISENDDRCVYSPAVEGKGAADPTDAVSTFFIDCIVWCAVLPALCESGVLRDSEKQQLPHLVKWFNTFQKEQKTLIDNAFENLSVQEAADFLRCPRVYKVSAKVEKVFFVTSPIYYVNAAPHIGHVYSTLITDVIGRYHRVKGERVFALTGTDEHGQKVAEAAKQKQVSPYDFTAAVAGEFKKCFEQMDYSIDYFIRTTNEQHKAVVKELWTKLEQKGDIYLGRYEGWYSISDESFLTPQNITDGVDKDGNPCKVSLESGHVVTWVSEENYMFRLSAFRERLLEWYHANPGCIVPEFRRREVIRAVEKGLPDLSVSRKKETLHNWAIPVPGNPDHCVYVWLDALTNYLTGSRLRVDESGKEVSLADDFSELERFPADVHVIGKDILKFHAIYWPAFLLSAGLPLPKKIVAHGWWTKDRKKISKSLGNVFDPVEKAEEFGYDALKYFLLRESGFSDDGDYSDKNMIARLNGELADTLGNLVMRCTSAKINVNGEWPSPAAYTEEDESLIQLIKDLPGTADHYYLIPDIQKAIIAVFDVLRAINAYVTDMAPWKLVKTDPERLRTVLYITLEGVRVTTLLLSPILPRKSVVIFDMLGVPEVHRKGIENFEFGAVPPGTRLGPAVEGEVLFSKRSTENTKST

[2] = Counterscreen for inhibitors of Trypanosoma brucei methionyl tRNA synthetase (MetRS): Luminescence-based cell-based high throughput dose response assay to identify compounds that are cytotoxic to Jurkat human T lymphocyte cells.; type: functional
[3] = biological target: T1, Methionyl-tRNA synthetase, putative; type: functional, Trypanosoma brucei brucei strain 927/4 GUTat10.1; remark: listed apart in the source
[4] = Late stage counterscreen for inhibitors of Trypanosoma brucei methionyl tRNA synthetase (MetRS): Luminescence-based cell-based high throughput dose response assay to identify compounds that are cytotoxic to Jurkat human T lymphocyte cells.; type: functional
[5] = biological target: Luciferin 4-monooxygenase (Photinus pyralis, UniProt P08659); assay: Counter Screen for Luciferase-based Assay Positives. [Related pubchem assays: 620, 618, 411 ]
HT-1080 = assay: cytotoxicity in HT1080 fibrosarcoma cells, cell-based, fluorescence readout (AID 620); type: functional; conditions: Homo sapiens
[6] = HEK293 cell cytotoxicity, dose response, cytotoxicity control, dry powder samples (AID 720567); type: functional, cell-based
[7] = NIH-3T3 fibroblast cytotoxicity, dose response, cytotoxicity control, cell-based, fluorescence, Alamar Blue, secondary assay (AID 2327); type: functional;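 note: NIH-3T3 mouse fibroblasts cultured with fluconazole at 8 µg/mL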
Aminopeptidase N = biological target: T2, Aminopeptidase N (Plasmodium falciparum FcB1/Columbia, UniProt O96935); assay: P. falciparum M1AAP inhibitors, biochemical, fluorogenic H-Leu-NHMec substrate, 1536-well (AID 1445); parameters: species or system Plasmodium falciparum 3D7, 3D7
T2 sequence (O96935 whole entry): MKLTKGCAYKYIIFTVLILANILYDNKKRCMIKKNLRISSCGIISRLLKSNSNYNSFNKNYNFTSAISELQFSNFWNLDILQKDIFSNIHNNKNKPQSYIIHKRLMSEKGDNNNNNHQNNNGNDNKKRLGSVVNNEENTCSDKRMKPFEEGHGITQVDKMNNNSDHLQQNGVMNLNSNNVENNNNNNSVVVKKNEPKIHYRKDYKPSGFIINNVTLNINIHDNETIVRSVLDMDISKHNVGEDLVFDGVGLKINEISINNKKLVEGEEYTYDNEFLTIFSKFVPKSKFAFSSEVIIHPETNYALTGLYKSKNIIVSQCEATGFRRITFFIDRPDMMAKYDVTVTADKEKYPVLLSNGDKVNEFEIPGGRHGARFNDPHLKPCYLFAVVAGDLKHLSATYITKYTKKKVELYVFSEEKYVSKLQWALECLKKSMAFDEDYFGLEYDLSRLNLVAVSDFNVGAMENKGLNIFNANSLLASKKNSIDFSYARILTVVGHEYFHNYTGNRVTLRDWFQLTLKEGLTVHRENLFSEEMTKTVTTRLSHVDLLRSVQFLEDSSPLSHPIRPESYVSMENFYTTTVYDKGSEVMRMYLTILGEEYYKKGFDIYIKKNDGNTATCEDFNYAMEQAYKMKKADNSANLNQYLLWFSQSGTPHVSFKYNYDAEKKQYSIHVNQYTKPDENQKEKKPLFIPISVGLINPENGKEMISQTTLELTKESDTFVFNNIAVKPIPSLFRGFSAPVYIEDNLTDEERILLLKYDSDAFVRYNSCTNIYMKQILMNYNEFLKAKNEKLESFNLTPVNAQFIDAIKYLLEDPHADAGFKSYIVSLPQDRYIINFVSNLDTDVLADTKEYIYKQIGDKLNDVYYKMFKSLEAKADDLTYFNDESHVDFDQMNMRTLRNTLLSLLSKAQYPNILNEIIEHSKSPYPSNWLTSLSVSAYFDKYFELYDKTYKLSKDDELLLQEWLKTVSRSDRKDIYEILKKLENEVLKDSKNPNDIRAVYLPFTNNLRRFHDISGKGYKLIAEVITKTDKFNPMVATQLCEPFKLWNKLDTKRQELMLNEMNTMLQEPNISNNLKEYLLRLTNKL

[8] = C. albicans growth with fluconazole, confirmation, fluorescence, retest (AID 2467); type: functional, cell-based
Large T antigen = Large T antigen (Simian virus 40, UniProt P03070); type: functional, Betapolyomavirus macacae;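 note: Confirmatory-stage PubChem screen for compounds that inhibit SV40 T antigen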
[9] = biological target: T3, Mannose-6-phosphate isomerase (Homo sapiens, UniProt P34949); assay: inhibitors of human PMI, primary screen, biochemical, fluorescence intensity, coupled assay (AID 1209)
T3 sequence (P34949 whole entry): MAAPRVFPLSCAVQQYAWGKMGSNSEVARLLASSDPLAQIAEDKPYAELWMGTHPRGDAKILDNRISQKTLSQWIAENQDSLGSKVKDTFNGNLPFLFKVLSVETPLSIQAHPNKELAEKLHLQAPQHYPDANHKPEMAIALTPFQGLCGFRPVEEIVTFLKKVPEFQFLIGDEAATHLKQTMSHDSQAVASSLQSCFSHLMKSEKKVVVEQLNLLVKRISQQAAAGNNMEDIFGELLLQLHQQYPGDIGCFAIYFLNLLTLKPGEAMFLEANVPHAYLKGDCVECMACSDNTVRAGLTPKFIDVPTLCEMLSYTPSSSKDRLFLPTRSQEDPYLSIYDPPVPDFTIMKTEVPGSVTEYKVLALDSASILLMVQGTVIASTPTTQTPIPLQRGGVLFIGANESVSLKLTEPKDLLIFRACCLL

[10] = biological target: Induced myeloid leukemia cell differentiation protein Mcl-1 (Homo sapiens, UniProt Q07820); type: functional
Albumin = Albumin (Bos taurus, UniProt P02769); assay: Counterscreen for inhibitors of T-cell receptor (TCR)-CD3 interaction: Fluorescence-based biochemical high throughput dose response assay to identify inhibitors of T-cell receptor (TCR)-CD3 interaction using a TAMRA-labeled BSA probe.; type: functional
Caspase-6 = biological target: T4, Caspase-6 (Homo sapiens, UniProt P55212); assay: human caspase-6 inhibitors, dose response, biochemical, VEID-R110 fluorescence, cherry-pick (AID 720632)
T4 sequence (P55212 whole entry): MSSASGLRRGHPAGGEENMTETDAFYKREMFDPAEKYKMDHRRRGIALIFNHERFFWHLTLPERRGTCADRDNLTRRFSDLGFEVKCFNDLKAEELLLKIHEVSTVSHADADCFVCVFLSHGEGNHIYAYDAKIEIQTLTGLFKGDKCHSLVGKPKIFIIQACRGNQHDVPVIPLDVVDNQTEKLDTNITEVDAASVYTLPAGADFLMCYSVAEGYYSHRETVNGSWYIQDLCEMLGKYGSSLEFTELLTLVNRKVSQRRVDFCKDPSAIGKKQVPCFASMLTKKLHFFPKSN

[11] = biological target: E3 ubiquitin-protein ligase UHRF1 (Homo sapiens, UniProt Q96T88); assay: Counterscreen for inhibitors of 5-meCpG-binding domain protein 2 (MBD2): TRFRET-based biochemical high throughput dose response assay to identify inhibitors of binding of ubiquitin-like with PHD and ring finger domains 1 (UHRF1) to methylated oligonucleotide.
[12] = biological target: T5, Histone-lysine N-methyltransferase NSD2 (Homo sapiens, UniProt O96028); type: biochemical
T5 sequence (O96028 whole entry): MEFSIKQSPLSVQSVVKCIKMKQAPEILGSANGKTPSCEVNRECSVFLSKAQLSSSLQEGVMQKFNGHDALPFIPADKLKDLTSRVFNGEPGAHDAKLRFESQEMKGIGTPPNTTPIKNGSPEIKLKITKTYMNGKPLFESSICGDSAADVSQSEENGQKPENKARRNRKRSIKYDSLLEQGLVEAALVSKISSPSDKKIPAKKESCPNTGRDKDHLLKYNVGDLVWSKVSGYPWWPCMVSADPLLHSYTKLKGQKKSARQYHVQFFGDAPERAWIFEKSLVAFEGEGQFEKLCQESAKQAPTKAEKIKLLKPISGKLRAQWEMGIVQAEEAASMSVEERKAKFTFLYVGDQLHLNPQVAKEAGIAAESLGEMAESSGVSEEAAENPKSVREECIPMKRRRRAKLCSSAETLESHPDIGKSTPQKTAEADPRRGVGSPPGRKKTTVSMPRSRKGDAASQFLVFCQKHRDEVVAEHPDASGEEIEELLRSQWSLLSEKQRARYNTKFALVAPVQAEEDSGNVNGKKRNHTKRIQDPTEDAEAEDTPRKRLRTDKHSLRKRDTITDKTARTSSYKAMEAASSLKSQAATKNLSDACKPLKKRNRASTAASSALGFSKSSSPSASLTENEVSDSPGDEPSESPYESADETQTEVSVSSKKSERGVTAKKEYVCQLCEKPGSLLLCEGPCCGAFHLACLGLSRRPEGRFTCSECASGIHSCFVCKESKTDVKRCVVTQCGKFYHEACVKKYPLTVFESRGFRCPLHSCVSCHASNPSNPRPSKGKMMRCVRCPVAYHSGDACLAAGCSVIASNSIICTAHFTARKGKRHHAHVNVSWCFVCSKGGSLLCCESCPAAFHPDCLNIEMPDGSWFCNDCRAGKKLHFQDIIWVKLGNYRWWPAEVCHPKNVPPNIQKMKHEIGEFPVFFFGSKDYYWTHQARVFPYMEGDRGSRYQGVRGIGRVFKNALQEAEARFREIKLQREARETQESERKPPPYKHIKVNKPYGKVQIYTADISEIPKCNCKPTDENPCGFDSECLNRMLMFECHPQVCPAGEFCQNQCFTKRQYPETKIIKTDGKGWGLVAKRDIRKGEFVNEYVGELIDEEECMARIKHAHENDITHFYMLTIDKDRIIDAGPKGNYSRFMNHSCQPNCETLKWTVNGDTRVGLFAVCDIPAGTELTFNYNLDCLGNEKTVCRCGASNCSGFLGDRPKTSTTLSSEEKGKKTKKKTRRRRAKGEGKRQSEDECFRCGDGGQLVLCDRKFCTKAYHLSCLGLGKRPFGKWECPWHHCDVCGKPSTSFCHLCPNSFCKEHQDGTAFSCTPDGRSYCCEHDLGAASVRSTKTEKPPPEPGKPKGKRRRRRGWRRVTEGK

[13] = inhibitors of HIV Env-driven cell fusion, dose response, cherry-pick (AID 652057); type: functional, cell-based
[14] = CEM21 lymphoblast cell cytotoxicity, dose response, cytotoxicity control for viral fusion inhibitor project, CellTiter-Glo luminescence, cherry-picked (AID 652042); type: functional, cell-based;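 note: potency for signal decrease meaning cytotoxicity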
[15] = HIV Env cell-cell fusion inhibitors, dose response, HIV entry, plate reader, dry powder (AID 687023); type: functional, cell-based
[16] = CEM21 cell cytotoxicity, dose response, cytotoxicity control, plate reader, dry powder (AID 687026); type: functional, cell-based
[17] = inhibitors of non-replicating M. tuberculosis, dose response, luciferase, dry powder (AID 651619); type: functional; conditions: Mycobacterium tuberculosis
[18] = cytotoxicity in HepG2 cells, dose response, cytotoxicity control, cell-based, plate reader, dry powder (AID 651947); type: functional
[19] = cytotoxicity in HeLa cells, dose response, cytotoxicity control, cell-based, plate reader, dry powder (AID 651946); type: functional
[20] = inhibitors of non-replicating M. tuberculosis, dose response, luciferase, dry powder (AID 651620); type: functional; conditions: Mycobacterium tuberculosis
[21] = growth inhibition of replicating M. tuberculosis, dose response, counter-screen, dry powder, IC90 (AID 651617); type: functional; conditions: Mycobacterium tuberculosis

Albumin, sequence (P02769 whole entry): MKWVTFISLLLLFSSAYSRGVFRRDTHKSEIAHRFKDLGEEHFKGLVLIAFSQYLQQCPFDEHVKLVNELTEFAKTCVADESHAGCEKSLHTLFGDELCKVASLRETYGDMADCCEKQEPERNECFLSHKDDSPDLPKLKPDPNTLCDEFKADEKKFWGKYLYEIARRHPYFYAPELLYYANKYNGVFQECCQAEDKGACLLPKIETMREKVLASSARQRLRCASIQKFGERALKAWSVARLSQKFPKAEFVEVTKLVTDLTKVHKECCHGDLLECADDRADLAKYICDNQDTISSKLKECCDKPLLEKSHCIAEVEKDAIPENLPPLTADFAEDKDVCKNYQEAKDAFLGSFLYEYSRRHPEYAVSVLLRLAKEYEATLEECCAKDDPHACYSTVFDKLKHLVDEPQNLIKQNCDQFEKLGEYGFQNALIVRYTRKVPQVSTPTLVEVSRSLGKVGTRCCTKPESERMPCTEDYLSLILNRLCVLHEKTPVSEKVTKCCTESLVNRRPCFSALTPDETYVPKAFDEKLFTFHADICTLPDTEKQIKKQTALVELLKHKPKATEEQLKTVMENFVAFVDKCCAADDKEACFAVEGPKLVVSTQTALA
Luciferin 4-monooxygenase, sequence (P08659 whole entry): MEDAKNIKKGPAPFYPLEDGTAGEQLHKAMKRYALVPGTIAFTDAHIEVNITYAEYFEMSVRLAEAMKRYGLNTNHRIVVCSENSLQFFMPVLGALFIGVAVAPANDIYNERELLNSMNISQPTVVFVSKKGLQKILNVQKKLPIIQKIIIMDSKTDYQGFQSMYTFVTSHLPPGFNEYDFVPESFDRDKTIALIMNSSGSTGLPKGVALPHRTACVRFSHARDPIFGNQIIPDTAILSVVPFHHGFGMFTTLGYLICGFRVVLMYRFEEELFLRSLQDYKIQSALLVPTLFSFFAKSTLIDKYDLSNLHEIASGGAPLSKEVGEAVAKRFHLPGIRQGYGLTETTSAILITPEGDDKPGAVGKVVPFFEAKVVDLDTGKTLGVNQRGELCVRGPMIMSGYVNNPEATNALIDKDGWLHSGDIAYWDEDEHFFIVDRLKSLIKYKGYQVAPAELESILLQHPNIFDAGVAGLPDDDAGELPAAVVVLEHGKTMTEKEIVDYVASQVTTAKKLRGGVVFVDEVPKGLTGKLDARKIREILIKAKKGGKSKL
E3 ubiquitin-protein ligase UHRF1, sequence (Q96T88 whole entry, the tested form may be a part): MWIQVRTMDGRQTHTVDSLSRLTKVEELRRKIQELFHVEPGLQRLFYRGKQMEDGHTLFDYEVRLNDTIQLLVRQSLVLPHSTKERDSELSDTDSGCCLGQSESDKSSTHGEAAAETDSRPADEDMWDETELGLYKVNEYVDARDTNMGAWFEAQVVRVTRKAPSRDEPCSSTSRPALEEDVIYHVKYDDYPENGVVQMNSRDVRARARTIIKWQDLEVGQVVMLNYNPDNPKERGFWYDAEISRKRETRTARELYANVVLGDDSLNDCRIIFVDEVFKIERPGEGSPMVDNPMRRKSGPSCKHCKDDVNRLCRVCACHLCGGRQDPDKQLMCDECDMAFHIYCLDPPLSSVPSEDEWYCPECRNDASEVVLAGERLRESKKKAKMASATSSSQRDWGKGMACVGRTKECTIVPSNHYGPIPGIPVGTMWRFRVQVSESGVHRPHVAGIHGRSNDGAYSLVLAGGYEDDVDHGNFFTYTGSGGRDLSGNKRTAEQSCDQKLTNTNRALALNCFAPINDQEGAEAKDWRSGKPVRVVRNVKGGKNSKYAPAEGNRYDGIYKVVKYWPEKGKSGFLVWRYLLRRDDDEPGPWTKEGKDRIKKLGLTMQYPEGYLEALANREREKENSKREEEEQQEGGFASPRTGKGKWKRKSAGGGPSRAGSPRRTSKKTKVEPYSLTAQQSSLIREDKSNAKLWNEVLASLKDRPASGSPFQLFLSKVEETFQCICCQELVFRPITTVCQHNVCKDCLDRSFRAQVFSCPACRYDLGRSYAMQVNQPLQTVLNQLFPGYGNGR
Induced myeloid leukemia cell differentiation protein Mcl-1, sequence (Q07820 whole entry): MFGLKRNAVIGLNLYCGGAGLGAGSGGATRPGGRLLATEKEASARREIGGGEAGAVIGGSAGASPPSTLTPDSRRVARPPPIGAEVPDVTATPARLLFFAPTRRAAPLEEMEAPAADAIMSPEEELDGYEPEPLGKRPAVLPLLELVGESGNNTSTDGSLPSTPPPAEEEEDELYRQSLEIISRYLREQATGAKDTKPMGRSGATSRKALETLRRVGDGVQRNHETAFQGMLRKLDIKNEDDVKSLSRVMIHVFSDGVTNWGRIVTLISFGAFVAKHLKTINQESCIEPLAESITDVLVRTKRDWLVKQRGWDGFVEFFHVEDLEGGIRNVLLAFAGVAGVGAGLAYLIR
Large T antigen, sequence (P03070 whole entry): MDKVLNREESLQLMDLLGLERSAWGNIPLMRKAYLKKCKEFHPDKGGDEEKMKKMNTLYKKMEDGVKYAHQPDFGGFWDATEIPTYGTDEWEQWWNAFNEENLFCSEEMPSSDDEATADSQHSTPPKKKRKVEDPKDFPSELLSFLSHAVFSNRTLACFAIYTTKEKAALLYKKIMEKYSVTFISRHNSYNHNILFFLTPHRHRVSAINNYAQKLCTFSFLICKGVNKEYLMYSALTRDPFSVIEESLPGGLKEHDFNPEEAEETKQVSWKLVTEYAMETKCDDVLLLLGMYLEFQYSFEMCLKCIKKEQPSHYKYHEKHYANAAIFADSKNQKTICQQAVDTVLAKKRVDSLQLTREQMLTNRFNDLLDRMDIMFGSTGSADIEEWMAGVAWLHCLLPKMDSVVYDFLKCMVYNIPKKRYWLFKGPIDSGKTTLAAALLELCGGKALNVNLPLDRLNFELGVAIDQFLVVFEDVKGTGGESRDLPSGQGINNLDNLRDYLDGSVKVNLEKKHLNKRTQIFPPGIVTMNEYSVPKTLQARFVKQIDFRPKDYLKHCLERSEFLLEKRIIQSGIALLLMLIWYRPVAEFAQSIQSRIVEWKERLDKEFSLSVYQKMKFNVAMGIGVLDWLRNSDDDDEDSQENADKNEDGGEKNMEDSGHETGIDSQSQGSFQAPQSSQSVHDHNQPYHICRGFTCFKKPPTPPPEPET

SMILES: O=C(NCc1nc2ccccc2[nH]1)C1=C[C@H](c2ccc3c(c2)OCO3)C[C@H](OCCCCO)O1
- IC50 [1]: 3.35 µM (active)
- IC50 [2]: 83.3 µM (inactive)
- IC50 [3]: 1.84 µM (active)
- IC50 [4]: > 83.3 µM (inactive)

SMILES: Cc1cc(NC(=O)CSc2nc(-c3ccco3)cc(C(F)(F)F)n2)no1
- EC50 [5]: 1.59 µM (active)
- EC50 (HT-1080): 6.41 µM (active)
- AC50 [6]: > 30 µM (inactive)

SMILES: COc1ccc(/C=N/NC(=O)c2cc(O)c(O)c(O)c2)cc1Cn1cc([N+](=O)[O-])cn1
- EC50 [7]: 30 µM (active)
- IC50 (Aminopeptidase N): 92.6 µM (active)
- EC50 [8]: 3.25 µM (active)
- IC50 (Large T antigen): 0.99 µM (active)
- IC50 [9]: 12 µM (active)
- IC50 [10]: 4.31 µM (active)
- IC50 (Albumin): > 94.1 µM (inactive)
- AC50 (Caspase-6): 0.873 µM (active)
- IC50 [11]: > 43.8 µM (inactive)
- AC50 [12]: 5.22 µM (active)

SMILES: C[C@@H]1CN([C@H](C)CO)C(=O)c2cccc(NS(=O)(=O)c3ccc(Cl)cc3)c2O[C@@H]1CN(C)Cc1ccc(Cl)c(Cl)c1
- AC50 [13]: 1.45 µM (active)
- AC50 [14]: 52.9 µM (active)
- AC50 [15]: 7.39 µM (active)
- AC50 [16]: 18.9 µM (active)

SMILES: Clc1ccc(-c2nnc(SCc3ccccn3)o2)cc1
- IC90 [17]: 4 µM (active)
- AC50 [18]: 27.8 µM (active)
- AC50 [19]: > 52 µM (inactive)
- IC90 [20]: 4 µM (active)
- IC90 [21]: 62 µM (active)
